Drawing on patent publication US20090239841A1, “Diaryl Ureas as CB1 Antagonists” (priority 2004, published 2009), this text covers IC50 for 43 compounds.

The first assay deals with T1, hCB1 (Homo sapiens, UniProt P21554).
T1 construct: made in house; host or cells: Sf9 insect cells (baculovirus), P2 membranes
T1 sequence (P21554 whole entry): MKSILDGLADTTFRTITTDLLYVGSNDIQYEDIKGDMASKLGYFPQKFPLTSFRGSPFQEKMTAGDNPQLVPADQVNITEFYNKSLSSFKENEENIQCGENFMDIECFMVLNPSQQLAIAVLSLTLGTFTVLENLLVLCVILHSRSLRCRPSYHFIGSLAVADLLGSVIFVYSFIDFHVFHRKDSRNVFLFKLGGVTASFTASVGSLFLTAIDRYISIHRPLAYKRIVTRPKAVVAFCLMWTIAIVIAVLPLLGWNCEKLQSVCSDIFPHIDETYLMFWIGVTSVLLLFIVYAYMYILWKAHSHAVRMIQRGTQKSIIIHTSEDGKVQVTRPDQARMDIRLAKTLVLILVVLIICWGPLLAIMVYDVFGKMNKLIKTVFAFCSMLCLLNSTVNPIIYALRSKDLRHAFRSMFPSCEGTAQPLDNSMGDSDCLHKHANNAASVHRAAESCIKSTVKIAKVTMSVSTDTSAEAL
The assay can be described thus: Agonist-induced GTP binding (GTPγ35S) assay at CB1, Example 8. The class given is biochemical. The conditions noted are these: IC50 at CB1, determined as described in Example 8; read-out: IC50. The method in brief: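 Antagonism read as inhibition of 1 nM CP55,940-stimulated GTPγ35S ([…]) binding, compounds at 10^−10 to 10^−5 M. Baculovirus-infected Sf9 membranes bearing hCB1 plus G-protein subunits, 60 min room-temperature incubation with 5 μM GDP. Filtration and scintillation counting; data as percent over basal.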
As to `CCOC(=O)c1ccc(NC(=O)Nc2ccc(CC#N)cc2)cc1` [Compound 715, ethyl 4-[({[4-(cyanomethyl)phenyl]amino}carbonyl)amino]benzoate], the half-maximal inhibitory concentration (IC50) is below 2000 nM.

In the case of `CCc1ccc(NC(=O)Nc2ccc(C(=O)OC)cc2)cc1` [Compound 495, methyl 4-({[(4-ethylphenyl)amino]carbonyl}amino)benzoate], the IC50 was below 2000 nM.

Take `CC(=O)c1ccc(NC(=O)Nc2cccc(F)c2)cc1` [Compound 339, 1-(4-acetylphenyl)-3-(3-fluorophenyl)urea]: the half-inhibitory concentration (IC50) is below 2000 nM.

As to `COCc1ccc(NC(=O)Nc2ccc(C)c(C)c2)cc1` [Compound 684, 1-(3,4-dimethylphenyl)-3-[4-(methoxymethyl)phenyl]urea], the IC50 is below 2000 nM.

As to `Cc1ccccc1NC(=O)Nc1cccc(OC(F)F)c1` [Compound 377, 1-[3-(difluoromethoxy)phenyl]-3-(2-methylphenyl)urea], the IC50 was below 2000 nM.

Regarding `CC(=O)c1ccc(NC(=O)Nc2ccc(OC(C)C)cc2)cc1` [Compound 424, 1-(4-acetylphenyl)-3-(4-isopropoxyphenyl)urea], the 50% inhibitory concentration (IC50) is below 2000 nM.

On to `CCOC(=O)c1cccc(NC(=O)Nc2ccc(OCC#N)cc2)c1` [Compound 718, ethyl 3-[({[4-(cyanomethoxy)phenyl]amino}carbonyl)amino]benzoate], for which the IC50 is below 2000 nM.

As to `Cc1cc(NC(=O)Nc2ccc(OC(C)C)cc2)ccc1F` [Compound 693, 1-(4-fluoro-3-methylphenyl)-3-(4-isopropoxyphenyl)urea], the half-maximal inhibitory concentration (IC50) is below 2000 nM.

Turning to `CCc1cccc(NC(=O)Nc2ccc(OCC#N)cc2)c1` [Compound 488, 1-[4-(cyanomethoxy)phenyl]-3-(3-ethylphenyl)urea], the IC50 is below 2000 nM.

`Cc1cc(NC(=O)Nc2cccc(OC(F)F)c2)ccc1F` [Compound 697, 1-[3-(difluoromethoxy)phenyl]-3-(4-fluoro-3-methylphenyl)urea]: the IC50 is below 2000 nM.

Regarding `CCOC(=O)c1cccc(NC(=O)Nc2cccc(OC(F)F)c2)c1` [Compound 782, ethyl 3-[({[3-(difluoromethoxy)phenyl]amino}carbonyl)amino] benzoate], the IC50 was below 2000 nM.

`CCOc1ccc(NC(=O)Nc2ccc(C(C)=O)cc2)cc1` [Compound 413, 1-(4-acetylphenyl)-3-(4-ethoxyphenyl)urea]: the concentration for half-maximal inhibition (IC50) was below 2000 nM.

Regarding `CCc1ccc(NC(=O)Nc2ccc(C(C)C)cc2)cc1` [Compound 332, 1-(4-ethylphenyl)-3-(4-isopropylphenyl)urea], the IC50 is below 2000 nM.

Consider `CC(C)c1ccccc1NC(=O)Nc1cccc(OC(F)F)c1` [Compound 576, 1-[3-(difluoromethoxy)phenyl]-3-(2-isopropylphenyl)urea], for which the half-inhibitory concentration (IC50) is below 2000 nM.

As for `CCOC(=O)c1ccc(NC(=O)Nc2ccc(OC(F)F)cc2)cc1` [Compound 583, ethyl 4-[({[4-(difluoromethoxy)phenyl]amino}carbonyl)amino]benzoate], the 50% inhibitory concentration (IC50) is below 2000 nM.

In the case of `CC(C)c1ccc(NC(=O)Nc2ccc(F)cc2)cc1` [Compound 326, 1-(4-fluorophenyl)-3-(4-isopropylphenyl)urea], the IC50 was below 2000 nM.

As for `O=C(Nc1cccc(OC(F)F)c1)Nc1ccccc1OC(F)F` [Compound 539, 1-[2-(difluoromethoxy)phenyl]-3-[3-(difluoromethoxy)phenyl]urea], the IC50 was below 2000 nM.

Turning to `CC(=O)c1ccc(NC(=O)Nc2cccc(OC(C)C)c2)cc1` [Compound 420, 1-(4-acetylphenyl)-3-(3-isopropoxyphenyl)urea], the IC50 was below 2000 nM.

Take `COC(=O)c1ccc(NC(=O)Nc2ccc(Cl)cc2)cc1` [Compound 496, methyl 4-({[(4-chlorophenyl)amino]carbonyl}amino)benzoate]: the IC50 is below 2000 nM.

For the compound `CCOc1ccc(NC(=O)Nc2ccc(CC#N)cc2)cc1` [Compound 587, 1-[4-(cyanomethyl)phenyl]-3-(4-ethoxyphenyl)urea], the IC50 was below 2000 nM.

As for `CCOc1ccc(NC(=O)Nc2ccc([N+](=O)[O-])cc2)cc1` [Compound 560, 1-(4-ethoxyphenyl)-3-(4-nitrophenyl)urea], the concentration for half-maximal inhibition (IC50) is below 2000 nM.

Consider `Cc1cc(C)cc(NC(=O)Nc2cccc(OC(F)F)c2)c1` [Compound 710, 1-[3-(difluoromethoxy)phenyl]-3-(3,5-dimethylphenyl)urea], for which the IC50 is below 2000 nM.

For the compound `CCCc1ccc(NC(=O)Nc2cc(C)cc(C)c2)cc1` [Compound 658, 1-(3,5-dimethylphenyl)-3-(4-propylphenyl)urea], the half-inhibitory concentration (IC50) is below 2000 nM.

Consider `Cc1ccc(NC(=O)Nc2cccc(OC(F)F)c2)cc1` [Compound 370, 1-[3-(difluoromethoxy)phenyl]-3-(4-methylphenyl)urea], for which the IC50 is below 2000 nM.

`CCOC(=O)c1ccc(NC(=O)Nc2ccc(C(C)O)cc2)cc1` (stereo not shown) [Compound 750, ethyl 4-[({[4-(1-hydroxyethyl)phenyl]amino}carbonyl)amino] benzoate]: the IC50 is below 2000 nM.

Regarding `CCOC(=O)c1ccc(NC(=O)Nc2ccc(C)c(F)c2)cc1` [Compound 737, ethyl 4-({[(3-fluoro-4-methylphenyl)amino]carbonyl}amino)benzoate], the half-maximal inhibitory concentration (IC50) was below 2000 nM.

Consider `CC(=O)c1ccc(NC(=O)Nc2cccc(Br)c2)cc1` [Compound 353, 1-(4-acetylphenyl)-3-(3-bromophenyl)urea], for which the IC50 is below 2000 nM.

Regarding `CCOC(=O)c1ccc(NC(=O)Nc2cccc(OCC)c2)cc1` [Compound 662, ethyl 4-({[(3-ethoxyphenyl)amino]carbonyl}amino)benzoate], the 50% inhibitory concentration (IC50) was below 2000 nM.

Staying with this assay, now noted: Table I; IC50 at CB1, GTP binding with 1 nM CP55,940; read-out: IC50.
As to `CCc1ccc(NC(=O)Nc2cccc(C#N)c2)cc1` [Compound 55, N-(3-cyanophenyl)-N′-(4-ethylphenyl)urea], the IC50 was below 2000 nM.

For the compound `CC(C)Oc1cccc(NC(=O)Nc2ccccc2)c1` [Compound 49, N-(3-isopropoxyphenyl)-N′-phenylurea], the IC50 was below 2000 nM.

Staying with this assay, now noted: Table II; IC50 at CB1, GTP binding with 1 nM CP55,940; read-out: IC50.
In the case of `Cc1ccc(NC(=O)Nc2cccc(C#N)c2)cc1` [Compound 186, N-(3-cyanophenyl)-N′-(4-methylphenyl)urea], the half-maximal inhibitory concentration (IC50) was below 2000 nM.

For the compound `CCOc1cccc(NC(=O)Nc2ccc(C(C)=O)cc2)c1` [Compound 263, N-(4-acetylphenyl)-N′-(3-ethoxyphenyl)urea], the IC50 was below 2000 nM.

In the case of `N#Cc1ccc(NC(=O)Nc2ccc(OC(F)F)cc2)cc1` [Compound 287, N-(4-cyanophenyl)-N′-[4-(difluoromethoxy)phenyl]urea], the IC50 was below 2000 nM.

With `O=C(Nc1ccc(OC(F)F)cc1)Nc1ccc(C(=O)c2ccccc2)cc1` [Compound 140, N-(4-benzoylphenyl)-N′-[4-(difluoromethoxy)phenyl]urea], the concentration for half-maximal inhibition (IC50) is below 2000 nM.

Turning to `Cc1noc(C)c1-c1cccc(NC(=O)Nc2ccc(OC(F)F)cc2)c1` [Compound 115, N-[4-(difluoromethoxy)phenyl]-N′-[3-(3,5-dimethylisoxazol-4-yl)phenyl]urea], the half-maximal inhibitory concentration (IC50) is below 2000 nM.

Regarding `CC(=O)c1ccc(NC(=O)Nc2cccc(F)c2)cc1` [Compound 188, N-(4-acetylphenyl)-N′-(3-fluorophenyl)urea], the 50% inhibitory concentration (IC50) is below 2000 nM.

As for `CC(=O)c1ccc(NC(=O)Nc2ccc(F)cc2)cc1` [Compound 189, N-(4-acetylphenyl)-N′-(4-fluorophenyl)urea], the concentration for half-maximal inhibition (IC50) was below 2000 nM.

Take `O=C(Nc1ccc(OC(F)(F)F)cc1)Nc1cccc(OCCO)c1` [Compound 101, N-[3-(2-hydroxyethoxy)phenyl]-N′-[4-(trifluoromethoxy)phenyl]urea]: the IC50 is below 2000 nM.

In the case of `CCc1ccc(NC(=O)Nc2ccc(OC(C)C)cc2)cc1` [Compound 250, N-(4-ethylphenyl)-N′-(4-isopropoxyphenyl)urea], the IC50 is below 2000 nM.

As for `Cc1ccc(NC(=O)Nc2ccc(C)c(F)c2)cc1` [Compound 160, N-(3-fluoro-4-methylphenyl)-N′-(4-methylphenyl)urea], the IC50 was below 2000 nM.

As to `CC(C)Oc1ccc(NC(=O)Nc2ccc(OC(F)F)cc2)cc1` [Compound 97, N-[4-(difluoromethoxy)phenyl]-N′-(4-isopropoxyphenyl)urea], the concentration for half-maximal inhibition (IC50) was below 2000 nM.

As to `O=C(Nc1ccc(OC(F)F)cc1)Nc1cccc(Oc2ccccc2)c1` [Compound 85, N-[4-(difluoromethoxy)phenyl]-N′-(3-phenoxyphenyl)urea], the concentration for half-maximal inhibition (IC50) is below 2000 nM.

As for `O=C(Nc1cccc(OC(F)F)c1)Nc1cccc(OC(F)(F)F)c1` [Compound 145, N-{3-(difluoromethoxy)phenyl]-N′-[3-(trifluoromethoxy)phenyl]urea], the IC50 was below 2000 nM.

For orientation: IC50 means the point on the concentration scale where inhibition reaches its midpoint.
